Assay results: PubChem BioAssay AID1918956 (Molecular Pharmacology Branch, DTP, NCI, 2023)

Tested on: OVCAR-5 complex spheroids, viability
Test: Anticancer human tumor OVCAR-5 cell line growth inhibition;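 further: spheroids exposed to agents for seven days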;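 on viability, T/C: 100% = DMSO vehicle control wells viability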
Conditions: for IC50: curve of first compound; for viability, T/C: stronger effect = lower value; active means viability on the fitted dose curve at most 10% of control; inactive means the rest
Outline: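 Multicellular complex spheroids of tumor cells with human endothelial cells (HUVEC) and mesenchymal stem cells; the LSD1 inhibitor iadademstat was combined with standard-of-care or investigational agents. Top concentration at or near clinical Cmax, half-log dilutions; final DMSO ≤0.25%.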

[1] = second compound 0.1 µM, first compound 0.0316 µM
[2] = second compound 0.1 µM, first compound 0.1 µM
[3] = second compound 0.1 µM, first compound 0.316 µM
[4] = second compound 0.1 µM, first compound 1 µM
[5] = second compound 0.1 µM, first compound 3.16 µM
[6] = second compound 0.1 µM, first compound 10 µM
[7] = second compound 0.316 µM, first compound 0.0316 µM
[8] = second compound 0.316 µM, first compound 0.1 µM
[9] = second compound 0.316 µM, first compound 0.316 µM
[10] = second compound 0.316 µM, first compound 1 µM
[11] = second compound 0.316 µM, first compound 3.16 µM
[12] = second compound 0.316 µM, first compound 10 µM
[13] = second compound 1 µM, first compound 0.0316 µM
[14] = second compound 1 µM, first compound 0.1 µM
[15] = second compound 1 µM, first compound 0.316 µM
[16] = second compound 1 µM, first compound 1 µM
[17] = second compound 1 µM, first compound 3.16 µM
[18] = second compound 1 µM, first compound 10 µM
[19] = second compound 3.16 µM, first compound 0.0316 µM
[20] = second compound 3.16 µM, first compound 0.1 µM
[21] = second compound 3.16 µM, first compound 0.316 µM
[22] = second compound 3.16 µM, first compound 1 µM
[23] = second compound 3.16 µM, first compound 3.16 µM
[24] = second compound 3.16 µM, first compound 10 µM
[25] = second compound 10 µM, first compound 0.0316 µM
[26] = second compound 10 µM, first compound 0.1 µM
[27] = second compound 10 µM, first compound 0.316 µM
[28] = second compound 10 µM, first compound 1 µM
[29] = second compound 10 µM, first compound 3.16 µM
[30] = second compound 10 µM, first compound 10 µM

CC1(C)CCC(CN2CCN(c3ccc(C(=O)NS(=O)(=O)c4ccc(NCC5CCOCC5)c([N+](=O)[O-])c4)c(Oc4cnc5[nH]ccc5c4)c3)CC2)=C(c2ccc(Cl)cc2)C1 + NC1CC1c1ccc(-c2cccc(O)c2)cc1
7.76 µM: IC50 (second compound 0.316 µM)
7.57 µM: IC50 (second compound 10 µM)
7.37 µM: IC50 (second compound 1 µM)
inactive: viability, T/C [1] 99.4% | viability, T/C [2] 97.3% | viability, T/C [3] 110% | viability, T/C [4] 97.2% | viability, T/C [5] 103% | viability, T/C [6] 32.1% | viability, T/C [7] 107% | viability, T/C [8] 112% | viability, T/C [9] 106% | viability, T/C [10] 101% | viability, T/C [11] 100% | viability, T/C [12] 35.6% | viability, T/C [13] 110% | viability, T/C [14] 92.4% | viability, T/C [15] 93.3% | viability, T/C [16] 105% | viability, T/C [17] 94.4% | viability, T/C [18] 33.7% | viability, T/C [19] 103% | viability, T/C [20] 86.9% | viability, T/C [21] 88.5% | viability, T/C [22] 106% | viability, T/C [23] 96% | viability, T/C [24] 35.7% | viability, T/C [25] 89.3% | viability, T/C [26] 85% | viability, T/C [27] 85.9% | viability, T/C [28] 86% | viability, T/C [29] 85% | viability, T/C [30] 38.9%
7.61 µM: IC50 (second compound 3.16 µM)
7.44 µM: IC50 (second compound 0.1 µM)

CC1COCCN1c1cc(C2(S(C)(=N)=O)CC2)nc(-c2ccnc3[nH]ccc23)n1 (stereo not given) + NC1CC1c1ccc(-c2cccc(O)c2)cc1
0.792 µM: IC50 (second compound 1 µM)
0.697 µM: IC50 (second compound 10 µM)
0.663 µM: IC50 (second compound 3.16 µM)
0.862 µM: IC50 (second compound 0.316 µM)
0.858 µM: IC50 (second compound 0.1 µM)
inactive: viability, T/C [1] 80.6% | viability, T/C [2] 78.3% | viability, T/C [3] 72.8% | viability, T/C [4] 45.9% | viability, T/C [5] 32% | viability, T/C [6] 26.7% | viability, T/C [7] 89.2% | viability, T/C [8] 95.6% | viability, T/C [9] 80.6% | viability, T/C [10] 44.9% | viability, T/C [11] 33% | viability, T/C [12] 25.6% | viability, T/C [13] 71.4% | viability, T/C [14] 75.4% | viability, T/C [15] 74.2% | viability, T/C [16] 44% | viability, T/C [17] 29.9% | viability, T/C [18] 25% | viability, T/C [19] 88.8% | viability, T/C [20] 77.6% | viability, T/C [21] 62.1% | viability, T/C [22] 42.9% | viability, T/C [23] 32% | viability, T/C [24] 24.8% | viability, T/C [25] 76.9% | viability, T/C [26] 78.6% | viability, T/C [27] 65.7% | viability, T/C [28] 42.3% | viability, T/C [29] 32.3% | viability, T/C [30] 27%
